Paper doi:10.1101/2025.10.20.683491v1 (biorxiv, 2025)

Target: hERG channel (Homo sapiens, UniProt Q12809, species not given)
Assay: hERG channel inhibition assay
Type: cell-based

Sequence of hERG channel (Q12809 whole entry): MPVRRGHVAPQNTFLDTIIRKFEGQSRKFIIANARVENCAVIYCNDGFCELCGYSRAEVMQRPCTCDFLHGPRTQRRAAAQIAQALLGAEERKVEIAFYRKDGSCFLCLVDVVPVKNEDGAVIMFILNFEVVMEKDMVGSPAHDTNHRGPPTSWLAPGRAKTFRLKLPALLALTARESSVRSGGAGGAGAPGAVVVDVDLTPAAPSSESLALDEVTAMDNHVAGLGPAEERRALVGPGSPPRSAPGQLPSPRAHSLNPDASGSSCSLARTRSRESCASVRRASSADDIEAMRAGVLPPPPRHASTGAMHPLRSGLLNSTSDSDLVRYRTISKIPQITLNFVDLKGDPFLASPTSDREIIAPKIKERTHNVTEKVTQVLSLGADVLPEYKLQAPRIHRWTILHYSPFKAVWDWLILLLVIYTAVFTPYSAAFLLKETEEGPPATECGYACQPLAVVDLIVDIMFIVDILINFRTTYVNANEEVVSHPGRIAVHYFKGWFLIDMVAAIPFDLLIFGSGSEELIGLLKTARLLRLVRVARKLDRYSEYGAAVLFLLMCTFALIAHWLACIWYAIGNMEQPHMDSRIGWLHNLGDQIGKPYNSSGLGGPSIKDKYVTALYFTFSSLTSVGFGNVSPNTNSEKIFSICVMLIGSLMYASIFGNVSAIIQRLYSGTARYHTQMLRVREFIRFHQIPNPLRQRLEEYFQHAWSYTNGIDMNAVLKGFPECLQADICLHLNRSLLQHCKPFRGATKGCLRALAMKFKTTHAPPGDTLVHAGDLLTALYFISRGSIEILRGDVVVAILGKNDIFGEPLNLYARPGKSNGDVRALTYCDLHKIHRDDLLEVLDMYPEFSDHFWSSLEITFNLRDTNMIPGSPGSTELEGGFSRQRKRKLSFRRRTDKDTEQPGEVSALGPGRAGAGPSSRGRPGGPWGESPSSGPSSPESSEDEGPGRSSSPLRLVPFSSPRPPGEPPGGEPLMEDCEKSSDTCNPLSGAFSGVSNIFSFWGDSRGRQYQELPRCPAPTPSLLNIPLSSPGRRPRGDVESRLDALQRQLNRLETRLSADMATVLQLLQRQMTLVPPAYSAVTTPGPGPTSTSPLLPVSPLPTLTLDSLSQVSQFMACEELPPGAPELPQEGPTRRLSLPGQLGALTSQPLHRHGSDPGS

With `CNC(=O)C[C@@H](NC(=O)C[C@H](Cc1c[nH]c2ccccc12)NC(=O)[C@@H]1CCCC[C@H]1NCc1cnc(-c2sc(C)nc2C)o1)c1ccccc1` [DEL-C1] as the molecule, how does the IC50 read?
The IC50 was over 100 µM.
